#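 How tested: cells in 96-well plates exposed to compound for 48 hours at five concentrations. GI50 marks 50% less growth.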 Activity calls are given as the source filed them. Rule as the data show it: active = GI50 up to about 1.1 µM and inactive = higher.
# Experiments:
# Experiment in all cases: NCI anticancer screen, dose series, 48 h
# SW-620 = tested on: SW-620
# RPMI-8226 = tested on: RPMI-8226
# SF-268 = tested on: SF-268
# UACC-62 = tested on: UACC-62
# MOLT-4 = tested on: MOLT-4
# M14 = tested on: M14
# NCI-H460 = tested on: NCI-H460
# SNB-75 = tested on: SNB-75
# A549 = tested on: A549
# CAKI-1 = tested on: CAKI-1
# SF-539 = tested on: SF-539
# UO-31 = tested on: UO-31
# SNB-19 = tested on: SNB-19
# EKVX = tested on: EKVX
# PC-3 = tested on: PC-3
# HCT-116 = tested on: HCT-116
# KM12 = tested on: KM12
# SK-MEL-28 = tested on: SK-MEL-28
# HL-60 = tested on: HL-60
# Malme-3M = tested on: Malme-3M
Compound,GI50 (SW-620),GI50 (RPMI-8226),GI50 (SF-268),GI50 (UACC-62),GI50 (MOLT-4),GI50 (M14),GI50 (NCI-H460),GI50 (SNB-75),GI50 (A549),GI50 (CAKI-1),GI50 (SF-539),GI50 (UO-31),GI50 (SNB-19),GI50 (EKVX),GI50 (PC-3),GI50 (HCT-116),GI50 (KM12),GI50 (SK-MEL-28),GI50 (HL-60),GI50 (Malme-3M)
COc1ccc(C/C=C(\C)CCO)cc1,> 100 µM (inactive),19.7 µM (inactive),> 100 µM (inactive),> 100 µM (inactive),> 100 µM (inactive),> 100 µM (inactive),> 100 µM (inactive),> 100 µM (inactive),> 100 µM (inactive),38.5 µM (inactive),> 100 µM (inactive),> 100 µM (inactive),> 100 µM (inactive),> 100 µM (inactive),> 100 µM (inactive),> 100 µM (inactive),> 100 µM (inactive),–,–,–
C=CC(C)(C)C(=C)C(=O)N(C)c1ccccc1I,> 100 µM (inactive),> 100 µM (inactive),> 100 µM (inactive),> 100 µM (inactive),83.2 µM (inactive),> 100 µM (inactive),> 100 µM (inactive),> 100 µM (inactive),> 100 µM (inactive),> 100 µM (inactive),–,> 100 µM (inactive),> 100 µM (inactive),> 100 µM (inactive),> 100 µM (inactive),84.9 µM (inactive),> 100 µM (inactive),> 100 µM (inactive),–,–
CC(=O)Nc1ccc(-c2nnc(SCC(=O)Nc3ccc(Cl)cc3)o2)cc1,6.21 µM (inactive),6.89 µM (inactive),4.53 µM (inactive),4.89 µM (inactive),11.2 µM (inactive),14.5 µM (inactive),10 µM (inactive),21.5 µM (inactive),16.8 µM (inactive),18 µM (inactive),16 µM (inactive),14.4 µM (inactive),20 µM (inactive),21 µM (inactive),–,7.74 µM (inactive),13.7 µM (inactive),13.2 µM (inactive),16.3 µM (inactive),13.6 µM (inactive)
CN(C)CCONC(=O)C12CC3CC(CC(C3)C1)C2,–,> 100 µM (inactive),> 100 µM (inactive),> 100 µM (inactive),> 100 µM (inactive),> 100 µM (inactive),> 100 µM (inactive),> 100 µM (inactive),> 100 µM (inactive),> 100 µM (inactive),> 100 µM (inactive),> 100 µM (inactive),> 100 µM (inactive),> 100 µM (inactive),–,> 100 µM (inactive),> 100 µM (inactive),> 100 µM (inactive),> 100 µM (inactive),0.02 µM (active)
COc1c2c(c(OC)c3c(=O)cc(C/C(=N/NC(=O)C[n+]4ccccc4)C(=O)Nc4cc(C)ccc4C)oc13)OCO2,> 100 µM (inactive),> 100 µM (inactive),> 100 µM (inactive),> 100 µM (inactive),> 100 µM (inactive),> 100 µM (inactive),> 100 µM (inactive),> 100 µM (inactive),> 100 µM (inactive),> 100 µM (inactive),> 100 µM (inactive),> 100 µM (inactive),> 100 µM (inactive),> 100 µM (inactive),–,> 100 µM (inactive),> 100 µM (inactive),> 100 µM (inactive),> 100 µM (inactive),> 100 µM (inactive)
CN(C)/N=C(/c1nc2ccc([N+](=O)[O-])cc2nc1O)C(O)c1ccco1 (stereo not drawn),92.3 µM (inactive),> 100 µM (inactive),84.9 µM (inactive),22.8 µM (inactive),> 100 µM (inactive),> 100 µM (inactive),> 100 µM (inactive),> 100 µM (inactive),> 100 µM (inactive),48.1 µM (inactive),> 100 µM (inactive),2.51 µM (inactive),> 100 µM (inactive),–,–,> 100 µM (inactive),34.8 µM (inactive),> 100 µM (inactive),> 100 µM (inactive),> 100 µM (inactive)
COc1cc(OC)c2c(c1)C(=O)C(CC(C)O)=CC2=O (stereo not drawn),17.8 µM (inactive),11.5 µM (inactive),18.2 µM (inactive),11.8 µM (inactive),3.89 µM (inactive),18.5 µM (inactive),23.6 µM (inactive),25.8 µM (inactive),22.3 µM (inactive),20.1 µM (inactive),18.4 µM (inactive),16.3 µM (inactive),17.7 µM (inactive),12 µM (inactive),–,12.5 µM (inactive),19.5 µM (inactive),17.7 µM (inactive),5.47 µM (inactive),22.7 µM (inactive)
C=C1C(=O)O[C@H]2C1C[C@@H](OC(C)=O)/C(C)=C/CC[C@@]1(C)O[C@H]21 (stereo partly drawn),4.47 µM (inactive),2.27 µM (inactive),–,3.05 µM (inactive),2 µM (inactive),0.687 µM (active),33.3 µM (inactive),28.2 µM (inactive),49.7 µM (inactive),9.18 µM (inactive),–,4.91 µM (inactive),26 µM (inactive),17.2 µM (inactive),15.3 µM (inactive),8.75 µM (inactive),21.8 µM (inactive),10.7 µM (inactive),–,4.36 µM (inactive)
COc1c(CC(C)=O)ccc2c1C(=O)c1ccc(C=O)c(OC(C)=O)c1C2=O,12.6 µM (inactive),8.45 µM (inactive),4.38 µM (inactive),4.55 µM (inactive),11.4 µM (inactive),12 µM (inactive),23.3 µM (inactive),20.5 µM (inactive),31.8 µM (inactive),17.8 µM (inactive),7.89 µM (inactive),20.4 µM (inactive),19.9 µM (inactive),23.3 µM (inactive),–,11.9 µM (inactive),14.6 µM (inactive),11 µM (inactive),5.06 µM (inactive),12.7 µM (inactive)
O=C1/C(=C/c2cccc([N+](=O)[O-])c2)Sc2scc(-c3ccc([N+](=O)[O-])cc3)[n+]21,30 µM (inactive),–,–,18.7 µM (inactive),21.1 µM (inactive),60.8 µM (inactive),11.4 µM (inactive),11 µM (inactive),29.6 µM (inactive),20.6 µM (inactive),23.8 µM (inactive),11.3 µM (inactive),18.9 µM (inactive),18.4 µM (inactive),30.7 µM (inactive),16 µM (inactive),15.2 µM (inactive),25.5 µM (inactive),–,–
CC1CN(c2ccc(Cl)cc2)CC(C)OC(=O)O1 (stereo not drawn),> 100 µM (inactive),> 100 µM (inactive),> 100 µM (inactive),> 100 µM (inactive),–,> 100 µM (inactive),> 100 µM (inactive),> 100 µM (inactive),> 100 µM (inactive),> 100 µM (inactive),> 100 µM (inactive),> 100 µM (inactive),> 100 µM (inactive),> 100 µM (inactive),–,–,> 100 µM (inactive),> 100 µM (inactive),> 100 µM (inactive),> 100 µM (inactive)
Clc1ccc(OCc2nnc3n2N=C(c2ccc(Br)cc2)CS3)cc1,32.7 µM (inactive),30.3 µM (inactive),–,27.1 µM (inactive),> 100 µM (inactive),> 10 µM (inactive),17.7 µM (inactive),2.96 µM (inactive),25.5 µM (inactive),> 10 µM (inactive),8.43 µM (inactive),2.8 µM (inactive),23.7 µM (inactive),–,–,22.6 µM (inactive),80.7 µM (inactive),28 µM (inactive),> 100 µM (inactive),28 µM (inactive)
CCOc1ccccc1NC(=O)C(C#N)C1=C(Cl)C(=O)c2ccccc2C1=O (stereo not drawn),1.78 µM (inactive),1.58 µM (inactive),2.11 µM (inactive),1.83 µM (inactive),1.17 µM (inactive),1.68 µM (inactive),1.79 µM (inactive),2.33 µM (inactive),1.95 µM (inactive),2.76 µM (inactive),2.12 µM (inactive),1.73 µM (inactive),2.13 µM (inactive),1.5 µM (inactive),–,1.95 µM (inactive),1.72 µM (inactive),2.03 µM (inactive),0.486 µM (active),1.57 µM (inactive)
CN1C(OCc2ccccc2)c2c(ccc3c2OCO3)C2C=Cc3cc4c(cc3C21)OCO4 (stereo not drawn),0.38 µM (active),0.221 µM (active),0.475 µM (active),1.2 µM (inactive),0.223 µM (active),0.885 µM (active),1.48 µM (inactive),1.4 µM (inactive),1.49 µM (inactive),1.03 µM (active),1.63 µM (inactive),1.32 µM (inactive),1.69 µM (inactive),1.62 µM (inactive),–,0.398 µM (active),1.01 µM (active),0.455 µM (active),0.226 µM (active),1.26 µM (inactive)
Cc1[nH]c2ccccc2c1C1CC(=O)NC1=O (stereo not drawn),> 100 µM (inactive),> 100 µM (inactive),–,> 100 µM (inactive),> 100 µM (inactive),> 100 µM (inactive),> 100 µM (inactive),> 100 µM (inactive),> 100 µM (inactive),> 100 µM (inactive),> 100 µM (inactive),> 100 µM (inactive),–,> 100 µM (inactive),–,> 100 µM (inactive),> 100 µM (inactive),> 100 µM (inactive),> 100 µM (inactive),> 100 µM (inactive)

# From ChEMBL document CHEMBL1201862, “PubChem BioAssay data set” (2004)
